From the NIST ThermoML archive (doi:10.1007/s10765-007-0223-x)

Assay: xn = mol fraction of the nth substance listed
Details: 101 kPa, Liquid; for speed of sound: Single path-length method

COC(C)(C)C [2-methoxy-2-methylpropane] + Cc1ccccc1
Details	mass density [kg/m3]	speed of sound [m/s]
288.15 K, x1 = 0.053	864.558	1332.9
288.15 K, x1 = 0.116	856.488	1315.9
288.15 K, x1 = 0.199	845.884	1295.2
288.15 K, x1 = 0.301	832.848	1268.1
288.15 K, x1 = 0.371	824.068	1249.5
288.15 K, x1 = 0.463	812.346	1225.8
288.15 K, x1 = 0.61	793.998	1186.3
288.15 K, x1 = 0.688	784.329	1166
288.15 K, x1 = 0.797	770.803	1137.3
288.15 K, x1 = 0.902	757.81	1108.5
288.15 K, x1 = 0.943	752.561	1097.5
288.15 K, x1 = 1	744.861	1083.4
290.65 K, x1 = 0.053	862.236	1321.9
290.65 K, x1 = 0.116	854.153	1304.8
290.65 K, x1 = 0.199	843.533	1284.2
290.65 K, x1 = 0.301	830.472	1257.4
290.65 K, x1 = 0.371	821.675	1238.5
290.65 K, x1 = 0.463	809.929	1215
290.65 K, x1 = 0.61	791.542	1175.6
290.65 K, x1 = 0.688	781.848	1155
290.65 K, x1 = 0.797	768.289	1126.6
290.65 K, x1 = 0.902	755.262	1098.2
290.65 K, x1 = 0.943	750	1086.8
290.65 K, x1 = 1	742.259	1071.6
293.15 K, x1 = 0.053	859.905	1310.9
293.15 K, x1 = 0.116	851.805	1293.8
293.15 K, x1 = 0.199	841.167	1273.2
293.15 K, x1 = 0.301	828.083	1246.4
293.15 K, x1 = 0.371	819.27	1227.5
293.15 K, x1 = 0.463	807.497	1203.9
293.15 K, x1 = 0.61	789.068	1164.7
293.15 K, x1 = 0.688	779.352	1143.9
293.15 K, x1 = 0.797	765.757	1115.7
293.15 K, x1 = 0.902	752.693	1087.4
293.15 K, x1 = 0.943	747.415	1075.9
293.15 K, x1 = 1	739.654	1060
295.65 K, x1 = 0.053	857.569	1299.9
295.65 K, x1 = 0.116	849.458	1282.8
295.65 K, x1 = 0.199	838.799	1262.2
295.65 K, x1 = 0.301	825.688	1235.4
295.65 K, x1 = 0.371	816.857	1216.5
295.65 K, x1 = 0.463	805.058	1193
295.65 K, x1 = 0.61	786.587	1153.6
295.65 K, x1 = 0.688	776.847	1132.8
295.65 K, x1 = 0.797	763.216	1104.9
295.65 K, x1 = 0.902	750.116	1076.7
295.65 K, x1 = 0.943	744.822	1064.8
295.65 K, x1 = 1	737.036	1048.5
298.15 K, x1 = 0.053	855.229	1288.9
298.15 K, x1 = 0.116	847.105	1271.8
298.15 K, x1 = 0.199	836.426	1251.2
298.15 K, x1 = 0.301	823.289	1224.5
298.15 K, x1 = 0.371	814.439	1205.5
298.15 K, x1 = 0.463	802.616	1181.8
298.15 K, x1 = 0.61	784.1	1142.6
298.15 K, x1 = 0.688	774.335	1122
298.15 K, x1 = 0.797	760.667	1093.8
298.15 K, x1 = 0.902	747.528	1065.7
298.15 K, x1 = 0.943	742.221	1053.5
298.15 K, x1 = 1	734.406	1036.9
300.65 K, x1 = 0.053	852.886	1278.1
300.65 K, x1 = 0.116	844.749	1260.8
300.65 K, x1 = 0.199	834.049	1240.2
300.65 K, x1 = 0.301	820.886	1213.6
300.65 K, x1 = 0.371	812.02	1194.5
300.65 K, x1 = 0.463	800.168	1170.8
300.65 K, x1 = 0.61	781.607	1131.6
300.65 K, x1 = 0.688	771.814	1111.4
300.65 K, x1 = 0.797	758.108	1082.6
300.65 K, x1 = 0.902	744.931	1054.4
300.65 K, x1 = 0.943	739.606	1042.1
300.65 K, x1 = 1	731.766	1025.4
303.15 K, x1 = 0.053	850.544	1267.3
303.15 K, x1 = 0.116	842.388	1250
303.15 K, x1 = 0.199	831.668	1229.3
303.15 K, x1 = 0.301	818.477	1202.6
303.15 K, x1 = 0.371	809.592	1183.6
303.15 K, x1 = 0.463	797.712	1159.8
303.15 K, x1 = 0.61	779.104	1120.6
303.15 K, x1 = 0.688	769.287	1100.2
303.15 K, x1 = 0.797	755.539	1071.4
303.15 K, x1 = 0.902	742.321	1043.1
303.15 K, x1 = 0.943	736.98	1030.7
303.15 K, x1 = 1	729.112	1013.9
305.65 K, x1 = 0.053	–	1256.5
305.65 K, x1 = 0.116	–	1239.1
305.65 K, x1 = 0.199	–	1218.4
305.65 K, x1 = 0.301	–	1191.7
305.65 K, x1 = 0.371	–	1172.6
305.65 K, x1 = 0.463	–	1148.8
305.65 K, x1 = 0.61	–	1109.7
305.65 K, x1 = 0.688	–	1089
305.65 K, x1 = 0.797	–	1060.2
305.65 K, x1 = 0.902	–	1031.7
305.65 K, x1 = 0.943	–	1019.3
305.65 K, x1 = 1	–	1002.4
